From US8435744B2 (priority 2005, dated 2013)

Target: PrP^C from uninfected N2a58 cells (Mus musculus, UniProt P04925)
Format: cell-based, murine
Conditions: normal N2a58 cells, 3 days, 5 to 20 μM, before and after PK, FIG. 5

Chain of PrP^C from uninfected N2a58 cells (P04925 23-230 limits assumed): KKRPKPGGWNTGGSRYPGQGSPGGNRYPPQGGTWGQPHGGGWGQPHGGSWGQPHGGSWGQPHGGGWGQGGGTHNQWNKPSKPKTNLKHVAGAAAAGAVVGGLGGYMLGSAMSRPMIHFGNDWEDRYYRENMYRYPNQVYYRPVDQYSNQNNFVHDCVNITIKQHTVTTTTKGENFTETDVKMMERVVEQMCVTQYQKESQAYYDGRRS

For `CSc1nccc(-c2ccc(Br)s2)n1` [compound A, 4-(5-bromo-2-thienyl)-2-(methylthio)pyrimidine], the “oligomeric forms of normal PrP or bands resistant to proteinase K digestion” value was “does not make it possible to demonstrate oligomeric forms of the normal prion protein, PrP nor the appearance of bands resistant to proteinase K digestion”.
